# System: NKT cells
# Assay: Repeated in vivo NKT cell stimulation, serum IFN-γ by ELISA
# Parameters: species or system C57BL/6 mice
# Settings: for IFN-γ (serum): 1 μg αGalCer i.v., bled 24 hours after treatment, mean ± SD of three mice
# Procedure: Nanoparticle containing 1 μg alpha-galactosylceramide was injected to C57BL6 mice, with non-conjugated nanoparticles as negative control. In parallel, we studied soluble form of alpha-galactosylceramide.
# C57/BL6 mice were purchased from the Jackson Laboratory (Bar Arbor, Me.) and housed in M.D. Anderson Cancer Center animal facilities under standard pathogen free conditions abiding institutional guidelines. 6 weeks old C57BL/6 mice were used for all experiments. 3 mice per group were used for each experiment. 1 μg alpha-galactosylceramide, or nanoparticle formulated alpha-galactosylceramide in 200 μL PBS was intravenously injected (through tail vein) to each mouse. Mice were treated every 10 days for 3 times. 200 μL of PBS/1% DMSO was used as control.
# Mice were bled at 24 hours after each drug treatment. Serum IFN-γ was measured by ELISA using a kit from BD Biosciences (San Jose, Calif.).
structure (smiles),measurement,setting,value
"CCCCCCCCCCCCCCCCCCCCCCCCCC(=O)N[C@@H](CO[C@H]1O[C@H](CO)[C@H](O)[C@H](O)[C@H]1O)[C@H](O)[C@H](O)CCCCCCCCCCCCCC [αGalCer, Alpha-galactosylceramide]",IFN-γ secretion upon repeated stimulation (anergy of NKT cells),"3 treatments every 10 days, i.v.",caused IFN-γ secretion only at the first treatment and failed to induce upon subsequent stimulations
same,IFN-γ (serum),x1 injection,2601 ± 257 pg/mL
same,IFN-γ (serum),x2 injection (every 10 days),65 ± 2 pg/mL
same,IFN-γ (serum),x3 injection (every 10 days),40 ± 11 pg/mL

# — patent US8546371B2, “Nanoparticle formulated glycolipid antigens for immunotherapy” (Board of Regents, The University of Texas System, priority 2009, dated 2013)
